# Target: human H3 receptor (Homo sapiens, UniProt Q9Y5N1)
# Assay: H3 receptor binding test (R(−)-α-methyl[3H]histamine)
# Set-up: purchased Euroscreen ES-392-M; host or cells: CHO-K1
# Settings: inhibition of R(−)-α-methyl[3H]histamine (2 nM) binding, membrane of human H3 receptor-expressing CHO-K1 cells
# Method: A membrane preparation of human H3 receptor-expressing CHO-K1 cells (Euroscreen, ES-392-M, 15 μg protein/200 μl), R(−)-α-methyl[^3H]histamine (Amersham, TRK-1017, specific activity: 1.74 TBq/mmol, 2 nM) and a test drug were reacted at room temperature for 1 hour. After completion of the reaction, the reaction mixture was subjected to suction filtration through a 0.3% polyethyleneimine-treated glass filter (GF/C). The glass filter was washed five times with 50 mM Tris-HCl washing solution (pH 7.4) containing 5 mM EDTA. After washing, the glass filter was dried and a scintillator was added thereto, followed by measurement of radioactivity on the filter using a liquid scintillation counter.
# A fixed concentration (2 nM) of R(−)-α-methyl[^3H]histamine was reacted under the above conditions with each test drug at various concentrations to obtain an inhibition curve.
# human H3 receptor, sequence (Q9Y5N1 whole entry): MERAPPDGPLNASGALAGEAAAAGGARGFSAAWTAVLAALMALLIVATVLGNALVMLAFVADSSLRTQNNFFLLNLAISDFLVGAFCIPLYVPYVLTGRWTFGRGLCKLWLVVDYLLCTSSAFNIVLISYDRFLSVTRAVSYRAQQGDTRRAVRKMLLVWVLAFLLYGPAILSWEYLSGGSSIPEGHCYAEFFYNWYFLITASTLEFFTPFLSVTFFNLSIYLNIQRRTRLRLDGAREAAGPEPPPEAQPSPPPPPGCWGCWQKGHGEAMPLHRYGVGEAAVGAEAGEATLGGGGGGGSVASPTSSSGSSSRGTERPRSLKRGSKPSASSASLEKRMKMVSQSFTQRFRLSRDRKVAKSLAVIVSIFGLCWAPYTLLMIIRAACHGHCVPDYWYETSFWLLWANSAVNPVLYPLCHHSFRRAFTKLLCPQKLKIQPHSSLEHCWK
row,IC50,SMILES
1,24 nM,"CCOC(=O)c1cnn(-c2ccc(OCCCN3CCC[C@H]3C)cc2)c1 [Example 1, 1-(4-{3-[(2R)-2-methylpyrrolidin-1-yl]propoxy}phenyl)-1H-pyrazole-4-carboxylic acid ethyl ester]"
2,6.5 nM,"C[C@@H]1CCCN1CCCOc1ccc(-n2cc(C(N)=O)cn2)cc1 [Example 2, 1-(4-{3-[(2R)-2-methylpyrrolidin-1-yl]propoxy}phenyl)-1H-pyrazole-4-carboxamide]"
3,4.6 nM,"C[C@@H]1CCCN1CCCOc1ccc(-n2cc(C#N)cn2)cc1 [Example 3, 1-(4-{3-[(2R)-2-methylpyrrolidin-1-yl]propoxy}phenyl)-1H-pyrazole-4-carbonitrile]"
4,33 nM,"C[C@H]1CCCN1CCCOc1ccc(-n2cc(C(N)=O)cn2)cc1 [Example 4, 1-(4-{3-[(2S)-2-methylpyrrolidin-1-yl]propoxy}phenyl)-1H-pyrazole-4-carboxamide]"
5,10.8 nM,"C[C@H]1CCCN1CCCOc1ccc(-n2cc(C#N)cn2)cc1 [Example 5, 1-(4-{3-[(2S)-2-methylpyrrolidin-1-yl]propoxy}phenyl)-1H-pyrazole-4-carbonitrile]"
6,24.2 nM,"O=C(c1cnn(-c2ccc(OCCCN3CCCC3)cc2)c1)N1CCOCC1 [Example 8, 4-({1-[4-(3-pyrrolidin-1-ylpropoxy)phenyl]-1H-pyrazol-4-yl}carbonyl)morpholine]"
7,8.5 nM,"O=C(c1cnn(-c2ccc(OCCCN3CCCCC3)cc2)c1)N1CCOCC1 [Example 9, 4-({1-[4-(3-piperidin-1-ylpropoxy)phenyl]-1H-pyrazol-4-yl}carbonyl)morpholine]"
8,49.4 nM,"CC1(C)CCCN1CCCOc1ccc(-n2cc(C(=O)N3CCOCC3)cn2)cc1 [Example 10, 4-[(1-{4-[3-(2,2-dimethylpyrrolidin-1-yl)propoxy]phenyl}-1H-pyrazol-4-yl)carbonyl]morpholine]"
9,1.8 nM,"CC1CCCN1CCCOc1ccc(-n2cc(C(=O)NC(C)(C)C)cn2)cc1 (centres unmarked) [Example 11, N-tert-butyl-1-{4-[3-(2-methylpyrrolidin-1-yl)propoxy]phenyl}-1H-pyrazole-4-carboxamide]"
10,19.3 nM,"CC1CCC(C)N1CCCOc1ccc(-n2cc(C(=O)NC(C)(C)C)cn2)cc1 (centres unmarked) [Example 12, N-tert-butyl-1-{4-[3-(2,5-dimethylpyrrolidin-1-yl)propoxy]phenyl}-1H-pyrazole-4-carboxamide]"
11,6.1 nM,"CC(C)(C)NC(=O)c1cnn(-c2ccc(OCCCN3CCCC3)cc2)c1 [Example 13, N-tert-butyl-1-[4-(3-pyrrolidin-1-ylpropoxy)phenyl]-1H-pyrazole-4-carboxamide]"
12,13.5 nM,"CCN(CC)CCCOc1ccc(-n2cc(C(=O)NC(C)(C)C)cn2)cc1 [Example 14, N-tert-butyl-1-{4-[3-(diethylamino)propoxy]phenyl}-1H-pyrazole-4-carboxamide]"
13,1.8 nM,"CC1CCCN1CCCOc1ccc(-n2cc(C(=O)Nc3ccc(F)cc3)cn2)cc1 (centres unmarked) [Example 15, N-(4-fluorophenyl)-1-{4-[3-(2-methylpyrrolidin-1-yl)propoxy]phenyl}-1H-pyrazole-4-carboxamide]"
14,5.9 nM,"O=C(Nc1ccc(F)cc1)c1cnn(-c2ccc(OCCCN3CCCC3)cc2)c1 [Example 16, N-(4-fluorophenyl)-1-[4-(3-pyrrolidin-1-ylpropoxy)phenyl]-1H-pyrazole-4-carboxamide]"
15,3.9 nM,"Cc1ccc(NC(=O)c2cnn(-c3ccc(OCCCN4CCCC4C)cc3)c2)cc1 (centres unmarked) [Example 17, N-(4-methylphenyl)-1-{4-[3-(2-methylpyrrolidin-1-yl)propoxy]phenyl}-1H-pyrazole-4-carboxamide]"
16,3 nM,"CC1CCCN1CCCOc1ccc(-n2cc(C(=O)NCc3ccc(F)cc3)cn2)cc1 (centres unmarked) [Example 18, 1-{4-[3-(2-methylpyrrolidin-1-yl)-propoxy]-phenyl}-1H-pyrazole-4-carboxylic acid 4-fluorobenzylamide]"
17,5.1 nM,"CC1CCCN1CCCOc1ccc(-n2cc(C(=O)N(C)C)cn2)cc1 (centres unmarked) [Example 19, 1-{4-[3-(2-methylpyrrolidin-1-yl)-propoxy]-phenyl}-1H-pyrazole-4-carboxylic acid dimethylamide]"
18,6.9 nM,"C[C@@H]1CCCN1CCCOc1ccc(-n2cc(C(=O)N(CCO)CCO)cn2)cc1 [Example 20, 1-(4-{3-[(2R)-2-methylpyrrolidin-1-yl]propoxy}phenyl)-1H-pyrazole-4-carboxylic acid bis-(2-hydroxyethyl)-amide]"
19,5.7 nM,"CC1CCCN1CCCOc1ccc(-n2cc(C(=O)N3CCC3)cn2)cc1 (centres unmarked) [Example 21, azetidin-1-yl-(1-{4-[3-(2-methylpyrrolidin-1-yl)propoxy]phenyl}-1H-pyrazol-4-yl)methanone]"

row,IC50,SMILES
1,2.7 nM,"C[C@@H]1CCCN1CCCOc1ccc(-n2cc(C(=O)N3CCC(F)(F)C3)cn2)cc1 [Example 22, 4-[(3,3-difluoropyrrolidin-1-yl)carbonyl]-1-(4-{3-[(2R)-2-methylpyrrolidin-1-yl]propoxy}phenyl)-1H-pyrazole]"
2,2.2 nM,"C[C@@H]1CCCN1CCCOc1ccc(-n2cc(C(=O)c3ccc(F)cc3)cn2)cc1 [Example 23, (4-fluorophenyl)[1-(4-{3-[(2R)-2-methylpyrrolidin-1-yl]propoxy}phenyl)-1H-pyrazol-4-yl]methanone]"
3,3.3 nM,"C[C@@H]1CCCN1CCCOc1ccc(-n2cc(C(=O)c3ccccc3)cn2)cc1 [Example 24, [1-(4-{3-[(2R)-2-methylpyrrolidin-1-yl]propoxy}phenyl)-1H-pyrazol-4-yl](phenyl)methanone]"
4,3.5 nM,"CC1CCCN1CCCOc1ccc(-n2cc(C(=O)c3ccccn3)cn2)cc1 (centres unmarked) [Example 25, (1-{4-[3-(2-methylpyrrolidin-1-yl)propoxy]phenyl}-1H-pyrazol-4-yl)(pyridin-2-yl)methanone]"
5,2.6 nM,"C[C@@H]1CCCN1CCCOc1ccc(-n2cc(C(=O)c3ccncc3)cn2)cc1 [Example 26, [1-(4-{3-[(2R)-2-methylpyrrolidin-1-yl]propoxy}phenyl)-1H-pyrazol-4-yl](pyridin-4-yl)methanone]"
6,1.6 nM,"CC(=O)c1cnn(-c2ccc(OCCCN3CCC[C@H]3C)cc2)c1 [Example 27, 1-[1-(4-{3-[(2R)-2-methylpyrrolidin-1-yl]propoxy}phenyl)-1H-pyrazol-4-yl]ethanone]"
7,3.1 nM,"C[C@@H]1CCCN1CCCOc1ccc(-n2cc([N+](=O)[O-])cn2)cc1 [Example 28, 1-(4-{3-[(2R)-2-methylpyrrolidin-1-yl]propoxy}phenyl)-4-nitro-1H-pyrazole]"
8,5.1 nM,"C[C@H]1CCCN1CCCOc1ccc(-n2cc(N3CCCC3=O)cn2)cc1 [Example 31, 1-[1-(4-{3-[(2S)-2-methylpyrrolidin-1-yl]propoxy}phenyl)-1H-pyrazol-4-yl]pyrrolidine-2-one]"
9,8.3 nM,"O=C1CCCN1c1cnn(-c2ccc(OCCCN3CCCC3)cc2)c1 [Example 32, 1-{1-[4-(3-pyrrolidin-1-ylpropoxy)phenyl]-1H-pyrazol-4-yl}pyrrolidine-2-one]"
10,2.1 nM,"CC1CCCN1CCCOc1ccc(-n2cc(N3CCOC3=O)cn2)cc1 (centres unmarked) [Example 34, 3-(1-{4-[3-(2-methylpyrrolidin-1-yl)propoxy]phenyl}-1H-pyrazol-4-yl)-1,3-oxazolidin-2-one]"
11,4 nM,"CC1CCCN1CCCOc1ccc(-n2cc(N3CCCCC3=O)cn2)cc1 (centres unmarked) [Example 36, 1-(1-{4-[3-(2-methylpyrrolidin-1-yl)propoxy]phenyl}-1H-pyrazol-4-yl)piperidin-2-one]"
12,2.1 nM,"CC(=O)Nc1cnn(-c2ccc(OCCCN3CCC[C@H]3C)cc2)c1 [Example 37, N-[1-(4-{3-[(2R)-2-methylpyrrolidin-1-yl]propoxy}phenyl)-1H-pyrazol-4-yl]acetamide]"
13,0.9 nM,"CC(=O)N(C)c1cnn(-c2ccc(OCCCN3CCC[C@H]3C)cc2)c1 [Example 38, N-methyl-N-[1-(4-{3-[(2R)-2-methylpyrrolidin-1-yl]propoxy}phenyl)-1H-pyrazol-4-yl]acetamide]"
14,3.5 nM,"CCN(C(C)=O)c1cnn(-c2ccc(OCCCN3CCCC3C)cc2)c1 (centres unmarked) [Example 39, N-ethyl-N-(1-{4-[3-(2-methylpyrrolidin-1-yl)propoxy]phenyl}-1H-pyrazol-4-yl)acetamide]"
15,4.4 nM,"CC1CCCN1CCCOc1ccc(-n2cc(NC(=O)c3ccc(C#N)cc3)cn2)cc1 (centres unmarked) [Example 40, 4-cyano-N-(1-{4-[3-(2-methylpyrrolidin-1-yl)propoxy]phenyl}-1H-pyrazol-4-yl)benzamide]"
16,2.1 nM,"COc1ccc(C(=O)Nc2cnn(-c3ccc(OCCCN4CCCC4C)cc3)c2)cc1 (centres unmarked) [Example 41, 4-methoxy-N-(1-{4-[3-(2-methylpyrrolidin-1-yl)propoxy]phenyl}-1H-pyrazol-4-yl)benzamide]"
17,1.7 nM,"C[C@@H]1CCCN1CCCOc1ccc(-n2cc(NC(=O)c3ccc(O)cc3)cn2)cc1 [Example 42, 4-hydroxy-N-[1-(4-{3-[(2R)-2-methylpyrrolidin-1-yl]propoxy}phenyl)-1H-pyrazol-4-yl]benzamide]"
18,1 nM,"C[C@@H]1CCCN1CCCOc1ccc(-n2cc(NC(=O)c3cccnc3)cn2)cc1 [Example 43, N-[1-(4-{3-[(2R)-2-methylpyrrolidin-1-yl]propoxy}phenyl)-1H-pyrazol-4-yl]pyridine-3-carboxamide]"
19,0.8 nM,"C[C@@H]1CCCN1CCCOc1ccc(-n2cc(NC(=O)c3ccncc3)cn2)cc1 [Example 44, N-[1-(4-{3-[(2R)-2-methylpyrrolidin-1-yl]propoxy}phenyl)-1H-pyrazol-4-yl]pyridine-4-carboxamide]"

# From patent US8183387B2, “Phenylpyrazole derivatives” (Taisho Pharmaceutical Co., Ltd, priority 2007, dated 2012)
